Experiment: Transmembrane screen (TS) for membrane affinity: drug solution added to membrane lipid Test system in 96 well plate, turbidity assessed visually or at 690 nm
Format: physicochemical
Conditions: higher turbidity with VP 805 than VP200 at 10:1 or lower lipid to drug ratios

Compound: Clc1ccccc1C(c1ccccc1)(c1ccccc1)n1ccnc1 [Clotrimazole]
- relative affinity for VP 200 versus VP 805 (turbidity): higher affinity for VP 200 than VP 805
